Data from PMC7039006 (2020).
Blank lines part the entries; values can stand above or below the compound they belong to.

Legend:
[1] = system: 5'-AGCA overhang on iM7 (DNA, i motif) AGCACCCCTTTCCC; experiment: fluorescence enhancement; conditions: 2 mM MgCl2; TAE pH 5; 1 μM DNA, 3 μM THIA
[2] = system: 5'-AGAA overhang on iM7 (DNA, i motif) AGAACCCCTTTCCC; experiment: fluorescence enhancement; conditions: 2 mM MgCl2; TAE pH 5; 1 μM DNA, 3 μM DSMB
[3] = system: TiM7 (5'-TGGA-C4T3C3) (DNA, i motif) TGGACCCCTTTCCC; experiment: CD melting at 290 nm; conditions: 2 mM MgCl2; TAE pH 5; 50 μM DNA, 150 μM ThT
[4] = system: TiM9 (TGGAC5T3C4) (DNA, i motif) TGGACCCCCTTTCCCC; experiment: CD melting at 290 nm; conditions: 2 mM MgCl2; TAE pH 5; 50 μM DNA, 150 μM ThT
[5] = system: iM7 (C4T3C3) (DNA, i motif) CCCCTTTCCC; experiment: CD melting at 290 nm; conditions: 2 mM MgCl2; TAE pH 5; 50 μM DNA, 150 μM ThT; Tm stated unchanged
[6] = system: iM9 (C5T3C4) (DNA, i motif) CCCCCTTTCCCC; experiment: CD melting at 290 nm; conditions: 2 mM MgCl2; TAE pH 5; 50 μM DNA, 150 μM ThT; Tm stated unchanged
[7] = system: TiM7 (5'-TGGA-C4T3C3) (DNA, i motif) TGGACCCCTTTCCC; experiment: fluorescence titration; conditions: 2 mM MgCl2; TAE pH 5, 22°C; 3 μM ThT titrated with DNA
[8] = system: TiM9 (TGGAC5T3C4) (DNA, i motif) TGGACCCCCTTTCCCC; experiment: fluorescence titration; conditions: 2 mM MgCl2; TAE pH 5, 22°C; 3 μM ThT titrated with DNA
[9] = system: 5'-GGA overhang on iM7 (DNA, i motif) GGACCCCTTTCCC; experiment: fluorescence enhancement; conditions: 2 mM MgCl2; TAE pH 5, 22°C; 1 μM DNA, 3 μM ThT
[10] = system: 5'-GGA overhang on iM9 (DNA, i motif) GGACCCCCTTTCCCC; experiment: fluorescence enhancement; conditions: 2 mM MgCl2; TAE pH 5, 22°C; 1 μM DNA, 3 μM ThT
[11] = system: 5'-AGGA overhang on iM7 (DNA, i motif) AGGACCCCTTTCCC; experiment: fluorescence enhancement; conditions: 2 mM MgCl2; TAE pH 5, 22°C; 1 μM DNA, 3 μM ThT
[12] = system: 5'-AGGA overhang on iM9 (DNA, i motif) AGGACCCCCTTTCCCC; experiment: fluorescence enhancement; conditions: 2 mM MgCl2; TAE pH 5, 22°C; 1 μM DNA, 3 μM ThT
[13] = system: 3'-GGGA on C3T3C4 (DNA, i motif) CCCTTTCCCCGGGA; experiment: fluorescence enhancement; conditions: 2 mM MgCl2; TAE pH 5, 22°C; 1 μM DNA, 3 μM ThT
[14] = system: 3'-GGGA on C4T3C5 (DNA, i motif) CCCCTTTCCCCCGGGA; experiment: fluorescence enhancement; conditions: 2 mM MgCl2; TAE pH 5, 22°C; 1 μM DNA, 3 μM ThT
[15] = system: FNA-TiM9 (Th46/Th58 tetrahedron heterodimer tethered with TiM9) (DNA, other) TTCAGACGGAATGTGCTTCCCAAGTGTCGTTTGTATTGGCTCGCAT/TCAACTGGGTGATAAAACGACACTTGGGAATCTACTATGGCTCTTC/TATCACCCAGTTGACAGTGTAGCATGTAATAGATGCGAGCCAATAC/ACATTCCGTCTGAAACATTACATGCTACACGAGAAGAGCCATAGTATTTTTTTTATAAATAATTGGACCCCCTTTCCCC/TTCAGACTTAGGAATGTTGCTTCCCACGTAGTGTCGTGTTGGTATTGGACCCTCGCAT/TCAACTGCCTGGTGATAAAACACGACACTACGTGGGAATCTTACTATGGCGGCTCTTC/TTATCACCAGGCAGTTGACAGGTGTAGCAAGCTGTAATAGATGCGAGGGTCCAATACC/AACATTCCTAAGTCTGAAACATTACAGCTTGCTACACCGAGAAGAGCCGCCATAGTAATTTTTTAATATTTATAATGGACCCCCTTTCCCC; experiment: fluorescence enhancement; conditions: 2 mM MgCl2; TAE pH 5; 0.4 μM FNA, 0.4 μM ThT; over 20-fold fluorescence increase versus pH 8

binding [1]: yes
SMILES: CCN1/C(=C/c2sc3ccccc3[n+]2CC)Sc2ccccc21

binding [2]: yes
SMILES: CN(C)c1ccc(/C=C/c2sc3ccccc3[n+]2C)cc1

binding [3]: yes
binding [4]: yes
binding [5]: weak
binding [6]: weak
Kd [7]: ~ 3.9 μM
Kd [8]: ~ 5.7 μM
binding [9]: weak
binding [10]: weak
binding [11]: yes
binding [12]: yes
binding [13]: yes
binding [14]: yes
binding [15]: yes
SMILES: Cc1ccc2c(c1)sc(-c1ccc(N(C)C)cc1)[n+]2C
